ChEMBL document CHEMBL1139192, “Novel bis(indolyl)maleimide pyridinophanes that are potent, selective inhibitors of glycogen synthase kinase-3” (Bioorg Med Chem Lett, 2007)

What was measured:
[1] = target: Cyclin-dependent kinase 5/CDK5 activator 1 (Homo sapiens) (UniProt Q00535+Q15078); assay: Inhibition of human CDK5/p35 at 1 uM relative to control; values are per cent of control
[2] = target: MAP kinase-activated protein kinase 2 (Homo sapiens) (UniProt P49137); assay: Inhibition of MAPKAPK2 at 1 uM relative to control; values are per cent of control
Homo sapiens [3] = species on record: Homo sapiens; assay: Residual activity of human CDK6/Cyclin D at 1 uM relative to control
[4] = target: Receptor-type tyrosine-protein kinase FLT3 (Homo sapiens) (UniProt P36888); assay: Residual activity of human Flt3 at 1 uM relative to control
[5] = target: Tyrosine-protein kinase ABL2 (Mus musculus) (UniProt Q4JIM5); assay: Residual activity of mouse Arg at 1 uM relative to control
[6] = target: Mitogen-activated protein kinase 8 (Homo sapiens) (UniProt P45983); assay: Inhibition of human JNK1alpha1 at 1 uM relative to control; values are per cent of control
[7] = target: Protein kinase C delta type (Homo sapiens) (UniProt Q05655); assay: Inhibition of human PKCdelta at 1 uM relative to control; values are per cent of control
[8] = target: Angiopoietin-1 receptor (Homo sapiens) (UniProt Q02763); assay: Residual activity of human Tie2 at 1 uM relative to control
[9] = target: T1, Calcium/calmodulin-dependent protein kinase type IV (Homo sapiens) (UniProt Q16566); assay: Residual activity of human CaMK4 at 1 uM relative to control
T1 sequence (whole entry): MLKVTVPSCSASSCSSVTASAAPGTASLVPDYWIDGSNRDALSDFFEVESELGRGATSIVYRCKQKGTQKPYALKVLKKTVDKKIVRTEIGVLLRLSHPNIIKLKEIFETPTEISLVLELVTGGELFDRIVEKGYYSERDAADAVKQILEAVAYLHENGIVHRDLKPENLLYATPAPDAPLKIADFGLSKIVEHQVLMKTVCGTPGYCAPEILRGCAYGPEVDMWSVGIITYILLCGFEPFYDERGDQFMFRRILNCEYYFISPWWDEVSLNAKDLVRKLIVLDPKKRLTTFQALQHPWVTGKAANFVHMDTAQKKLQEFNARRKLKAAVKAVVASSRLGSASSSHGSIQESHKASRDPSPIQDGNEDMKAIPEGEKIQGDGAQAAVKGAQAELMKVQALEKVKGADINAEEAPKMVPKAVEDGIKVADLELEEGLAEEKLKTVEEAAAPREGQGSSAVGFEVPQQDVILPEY

[10] = target: Mitogen-activated protein kinase 9 (Homo sapiens) (UniProt P45984); assay: Inhibition of human JNK2-alpha-2 at 1 uM relative to control; values are per cent of control
Homo sapiens [11] = species on record: Homo sapiens; assay: Residual activity of human PKBalpha at 1 uM relative to control
Homo sapiens [12] = species on record: Homo sapiens; assay: Inhibition of human MAPK2 at 1 uM relative to control; values are per cent of control
Saccharomyces cerevisiae = assay: Residual activity of yeast CK1 at 1 uM relative to control
[13] = target: T2, Protein kinase C zeta type (Homo sapiens) (UniProt Q05513); assay: Residual activity of human PKCzeta at 1 uM relative to control
T2 sequence (whole entry): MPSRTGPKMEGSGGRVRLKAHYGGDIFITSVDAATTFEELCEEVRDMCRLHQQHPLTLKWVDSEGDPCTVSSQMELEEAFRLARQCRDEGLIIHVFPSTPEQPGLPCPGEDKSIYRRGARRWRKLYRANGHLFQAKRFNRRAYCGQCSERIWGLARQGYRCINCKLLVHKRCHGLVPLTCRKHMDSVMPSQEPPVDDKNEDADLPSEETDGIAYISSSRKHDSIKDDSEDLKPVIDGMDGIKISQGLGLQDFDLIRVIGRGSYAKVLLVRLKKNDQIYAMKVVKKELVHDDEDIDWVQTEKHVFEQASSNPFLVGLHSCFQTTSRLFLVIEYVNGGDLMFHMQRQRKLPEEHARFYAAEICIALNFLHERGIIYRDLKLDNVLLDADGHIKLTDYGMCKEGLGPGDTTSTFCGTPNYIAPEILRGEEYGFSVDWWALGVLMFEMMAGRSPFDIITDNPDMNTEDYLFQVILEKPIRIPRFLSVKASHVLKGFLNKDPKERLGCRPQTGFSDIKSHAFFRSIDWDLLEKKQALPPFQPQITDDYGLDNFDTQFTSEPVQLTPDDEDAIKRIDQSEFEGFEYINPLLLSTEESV

[14] = target: Tyrosine-protein kinase ABL1 (Mus musculus) (UniProt P00520); assay: Residual activity of mouse Abl kinase at 1 uM relative to control
[15] = target: T3, Mitogen-activated protein kinase 13 (Homo sapiens) (UniProt O15264); assay: Inhibition of human SAPK4 at 1 uM relative to control; values are per cent of control
T3 sequence (whole entry): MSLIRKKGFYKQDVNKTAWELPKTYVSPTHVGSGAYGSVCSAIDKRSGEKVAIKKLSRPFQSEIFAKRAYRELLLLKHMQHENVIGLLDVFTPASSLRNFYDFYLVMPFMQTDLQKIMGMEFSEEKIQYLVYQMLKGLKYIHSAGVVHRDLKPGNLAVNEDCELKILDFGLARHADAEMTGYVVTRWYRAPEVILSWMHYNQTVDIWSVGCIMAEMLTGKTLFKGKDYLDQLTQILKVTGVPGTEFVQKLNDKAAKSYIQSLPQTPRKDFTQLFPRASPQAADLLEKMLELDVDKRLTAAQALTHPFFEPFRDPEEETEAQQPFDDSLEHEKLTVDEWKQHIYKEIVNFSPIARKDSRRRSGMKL

[16] = target: Glycogen synthase kinase-3 beta (Homo sapiens, UniProt P49841); assay: Residual activity of human GSK3-beta at 1 uM relative to control
[17] = target: 3-phosphoinositide-dependent protein kinase 1 (Homo sapiens) (UniProt O15530); assay: Inhibition of human PDK1 at 1 uM relative to control; values are per cent of control
Sequence of 3-phosphoinositide-dependent protein kinase 1 (Homo sapiens) (O15530 whole entry, looked up): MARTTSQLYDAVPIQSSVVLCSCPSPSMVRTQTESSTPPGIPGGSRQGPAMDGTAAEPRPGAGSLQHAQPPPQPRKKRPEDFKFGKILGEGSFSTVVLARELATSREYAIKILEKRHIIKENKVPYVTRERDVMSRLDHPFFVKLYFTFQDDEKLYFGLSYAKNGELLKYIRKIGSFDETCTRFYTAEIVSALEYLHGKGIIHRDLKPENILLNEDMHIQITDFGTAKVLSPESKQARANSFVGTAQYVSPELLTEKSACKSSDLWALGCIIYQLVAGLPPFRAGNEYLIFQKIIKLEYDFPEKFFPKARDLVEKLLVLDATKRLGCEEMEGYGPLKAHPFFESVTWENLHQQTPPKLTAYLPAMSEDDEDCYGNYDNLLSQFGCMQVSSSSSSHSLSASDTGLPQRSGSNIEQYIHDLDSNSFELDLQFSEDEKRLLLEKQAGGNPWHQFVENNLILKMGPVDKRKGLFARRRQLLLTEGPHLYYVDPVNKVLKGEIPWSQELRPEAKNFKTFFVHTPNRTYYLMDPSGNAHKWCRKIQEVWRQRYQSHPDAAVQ

Sequence of Angiopoietin-1 receptor (Homo sapiens) (Q02763 whole entry): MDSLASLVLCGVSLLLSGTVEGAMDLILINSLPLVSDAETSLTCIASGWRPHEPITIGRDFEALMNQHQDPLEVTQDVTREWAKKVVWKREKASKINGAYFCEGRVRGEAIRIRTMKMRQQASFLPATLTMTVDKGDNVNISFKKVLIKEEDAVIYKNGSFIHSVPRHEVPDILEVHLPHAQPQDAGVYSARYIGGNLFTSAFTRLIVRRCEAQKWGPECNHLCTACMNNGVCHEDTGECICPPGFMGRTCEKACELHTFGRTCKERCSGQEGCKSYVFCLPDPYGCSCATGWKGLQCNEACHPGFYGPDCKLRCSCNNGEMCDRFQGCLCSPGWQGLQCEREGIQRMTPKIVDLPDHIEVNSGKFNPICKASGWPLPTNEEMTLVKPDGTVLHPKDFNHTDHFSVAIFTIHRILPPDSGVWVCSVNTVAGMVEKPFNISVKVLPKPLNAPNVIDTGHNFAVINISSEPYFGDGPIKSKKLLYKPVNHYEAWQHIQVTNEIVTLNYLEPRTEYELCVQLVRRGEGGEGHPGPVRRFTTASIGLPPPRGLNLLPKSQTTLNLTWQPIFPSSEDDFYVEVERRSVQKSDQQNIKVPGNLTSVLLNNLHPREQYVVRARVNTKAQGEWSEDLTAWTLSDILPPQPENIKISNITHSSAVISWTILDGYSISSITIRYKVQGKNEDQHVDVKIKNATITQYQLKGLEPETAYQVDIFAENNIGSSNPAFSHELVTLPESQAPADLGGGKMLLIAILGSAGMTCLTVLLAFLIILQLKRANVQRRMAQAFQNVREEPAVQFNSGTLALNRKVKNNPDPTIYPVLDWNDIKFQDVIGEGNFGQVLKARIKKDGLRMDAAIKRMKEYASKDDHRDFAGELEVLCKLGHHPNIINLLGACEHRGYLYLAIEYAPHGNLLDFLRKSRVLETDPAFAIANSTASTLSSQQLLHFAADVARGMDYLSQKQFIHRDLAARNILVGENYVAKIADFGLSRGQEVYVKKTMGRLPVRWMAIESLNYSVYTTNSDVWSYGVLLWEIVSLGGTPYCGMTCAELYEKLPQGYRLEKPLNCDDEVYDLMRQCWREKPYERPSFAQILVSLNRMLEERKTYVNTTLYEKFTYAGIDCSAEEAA
Sequence of Receptor-type tyrosine-protein kinase FLT3 (Homo sapiens) (P36888 whole entry): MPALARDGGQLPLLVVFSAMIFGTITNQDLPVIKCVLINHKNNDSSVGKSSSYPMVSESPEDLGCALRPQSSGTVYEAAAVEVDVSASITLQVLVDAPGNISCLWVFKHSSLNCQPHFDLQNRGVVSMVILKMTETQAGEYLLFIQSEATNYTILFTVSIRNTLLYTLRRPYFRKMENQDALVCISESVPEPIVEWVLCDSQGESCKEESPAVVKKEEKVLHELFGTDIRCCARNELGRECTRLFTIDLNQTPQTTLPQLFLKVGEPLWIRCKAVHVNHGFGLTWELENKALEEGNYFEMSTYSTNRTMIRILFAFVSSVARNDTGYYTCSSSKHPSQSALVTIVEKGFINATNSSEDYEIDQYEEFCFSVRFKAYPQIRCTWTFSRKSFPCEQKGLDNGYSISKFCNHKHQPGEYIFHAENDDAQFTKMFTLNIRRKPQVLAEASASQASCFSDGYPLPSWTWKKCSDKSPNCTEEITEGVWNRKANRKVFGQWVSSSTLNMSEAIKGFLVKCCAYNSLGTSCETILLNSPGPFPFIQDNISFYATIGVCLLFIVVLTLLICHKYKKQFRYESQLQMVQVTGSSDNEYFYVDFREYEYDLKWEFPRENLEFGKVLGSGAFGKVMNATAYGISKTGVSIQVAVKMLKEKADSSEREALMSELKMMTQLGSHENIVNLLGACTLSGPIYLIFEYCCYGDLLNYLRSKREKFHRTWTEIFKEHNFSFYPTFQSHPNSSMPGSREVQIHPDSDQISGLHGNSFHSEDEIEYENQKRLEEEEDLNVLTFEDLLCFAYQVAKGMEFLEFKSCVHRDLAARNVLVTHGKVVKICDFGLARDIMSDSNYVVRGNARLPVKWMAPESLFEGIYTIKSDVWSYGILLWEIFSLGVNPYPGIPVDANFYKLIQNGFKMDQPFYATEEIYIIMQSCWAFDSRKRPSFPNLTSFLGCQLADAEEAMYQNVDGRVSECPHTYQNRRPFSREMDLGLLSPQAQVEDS
Sequence of Protein kinase C delta type (Homo sapiens) (Q05655 whole entry, looked up): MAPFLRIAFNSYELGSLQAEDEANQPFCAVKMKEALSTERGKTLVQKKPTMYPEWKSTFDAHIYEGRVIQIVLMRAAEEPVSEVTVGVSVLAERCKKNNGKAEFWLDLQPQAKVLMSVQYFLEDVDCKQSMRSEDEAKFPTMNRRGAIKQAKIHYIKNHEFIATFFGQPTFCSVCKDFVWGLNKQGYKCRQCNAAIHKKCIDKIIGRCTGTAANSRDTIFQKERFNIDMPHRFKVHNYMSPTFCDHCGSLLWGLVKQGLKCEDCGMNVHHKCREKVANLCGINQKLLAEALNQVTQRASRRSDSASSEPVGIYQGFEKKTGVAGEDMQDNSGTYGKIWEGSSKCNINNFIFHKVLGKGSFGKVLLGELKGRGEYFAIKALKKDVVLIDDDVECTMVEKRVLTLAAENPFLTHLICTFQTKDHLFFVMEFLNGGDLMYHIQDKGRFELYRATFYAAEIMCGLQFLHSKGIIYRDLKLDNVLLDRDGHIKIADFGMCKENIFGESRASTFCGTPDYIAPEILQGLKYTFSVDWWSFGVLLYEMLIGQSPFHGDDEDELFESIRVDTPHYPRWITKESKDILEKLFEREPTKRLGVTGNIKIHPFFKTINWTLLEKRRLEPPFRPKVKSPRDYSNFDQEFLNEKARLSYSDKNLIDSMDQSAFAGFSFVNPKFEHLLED
Sequence of Mitogen-activated protein kinase 9 (Homo sapiens) (P45984 whole entry, looked up): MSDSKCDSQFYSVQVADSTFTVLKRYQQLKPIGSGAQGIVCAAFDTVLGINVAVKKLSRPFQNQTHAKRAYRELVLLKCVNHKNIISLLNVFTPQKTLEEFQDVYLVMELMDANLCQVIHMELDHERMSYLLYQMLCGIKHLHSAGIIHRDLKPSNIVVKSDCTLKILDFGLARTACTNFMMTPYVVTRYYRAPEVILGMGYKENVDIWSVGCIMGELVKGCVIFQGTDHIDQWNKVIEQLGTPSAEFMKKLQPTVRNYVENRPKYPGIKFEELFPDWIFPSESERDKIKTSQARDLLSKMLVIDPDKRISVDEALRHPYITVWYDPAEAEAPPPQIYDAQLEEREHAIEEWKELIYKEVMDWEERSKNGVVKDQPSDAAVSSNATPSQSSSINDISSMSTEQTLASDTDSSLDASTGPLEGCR
Sequence of MAP kinase-activated protein kinase 2 (Homo sapiens) (P49137 whole entry, looked up): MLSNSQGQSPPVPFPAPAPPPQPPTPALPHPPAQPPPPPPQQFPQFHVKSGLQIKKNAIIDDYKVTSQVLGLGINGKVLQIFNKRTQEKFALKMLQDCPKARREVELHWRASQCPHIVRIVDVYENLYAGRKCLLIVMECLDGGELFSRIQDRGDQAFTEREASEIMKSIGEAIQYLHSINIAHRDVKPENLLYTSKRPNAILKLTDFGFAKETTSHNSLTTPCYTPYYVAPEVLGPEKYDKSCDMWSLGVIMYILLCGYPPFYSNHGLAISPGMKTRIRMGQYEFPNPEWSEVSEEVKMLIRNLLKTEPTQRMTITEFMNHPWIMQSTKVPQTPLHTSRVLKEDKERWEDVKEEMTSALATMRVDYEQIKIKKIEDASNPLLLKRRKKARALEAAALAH
Sequence of Mitogen-activated protein kinase 8 (Homo sapiens) (P45983 whole entry): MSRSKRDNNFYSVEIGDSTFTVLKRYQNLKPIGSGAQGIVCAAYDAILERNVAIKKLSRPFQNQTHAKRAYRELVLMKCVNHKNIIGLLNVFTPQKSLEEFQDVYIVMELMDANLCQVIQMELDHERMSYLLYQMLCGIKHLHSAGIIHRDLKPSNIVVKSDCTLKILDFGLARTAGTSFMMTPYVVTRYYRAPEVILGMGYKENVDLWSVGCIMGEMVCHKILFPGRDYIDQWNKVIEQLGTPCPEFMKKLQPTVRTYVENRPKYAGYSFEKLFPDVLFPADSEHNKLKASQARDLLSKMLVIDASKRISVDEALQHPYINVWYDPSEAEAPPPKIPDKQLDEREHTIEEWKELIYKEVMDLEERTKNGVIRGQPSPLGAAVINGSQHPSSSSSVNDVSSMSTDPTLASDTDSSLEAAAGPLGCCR
Sequence of Glycogen synthase kinase-3 beta (P49841 whole entry, looked up): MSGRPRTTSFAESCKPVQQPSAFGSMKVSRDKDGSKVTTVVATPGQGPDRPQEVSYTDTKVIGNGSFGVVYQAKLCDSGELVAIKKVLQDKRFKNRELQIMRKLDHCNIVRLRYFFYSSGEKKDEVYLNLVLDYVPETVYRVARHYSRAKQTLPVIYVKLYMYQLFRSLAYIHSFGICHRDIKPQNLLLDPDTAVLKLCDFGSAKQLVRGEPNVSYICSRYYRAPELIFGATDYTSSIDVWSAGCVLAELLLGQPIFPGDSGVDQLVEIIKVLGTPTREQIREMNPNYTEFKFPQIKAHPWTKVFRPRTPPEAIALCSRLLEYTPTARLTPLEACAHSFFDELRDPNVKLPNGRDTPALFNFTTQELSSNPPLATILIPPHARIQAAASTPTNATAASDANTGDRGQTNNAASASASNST

residual activity [1] [%] | residual activity [2] [%] | residual activity (Homo sapiens [3]) [%] | residual activity [4] [%] | residual activity [5] [%] | residual activity [6] [%] | residual activity [7] [%] | residual activity [8] [%] | residual activity [9] [%] | residual activity [10] [%] | residual activity (Homo sapiens [11]) [%] | residual activity (Homo sapiens [12]) [%] | residual activity (Saccharomyces cerevisiae) [%] | residual activity [13] [%] | residual activity [14] [%] | residual activity [15] [%] | residual activity [16] [%] | residual activity [17] [%] | Structure (SMILES)
99 | 98 | 86 | 86 | 113 | 102 | 73 | 110 | 92 | 96 | 94 | 102 | 91 | 98 | 98 | 101 | 1 | 115 | CN(C)c1nc2ccc1CCCn1cc(c3ccccc31)C1=C(C(=O)NC1=O)c1cn(c3ccccc13)CC2
105 | 101 | 74 | 71 | 129 | 105 | 100 | 109 | 113 | 106 | 114 | 104 | 98 | 105 | 108 | 104 | 1 | 104 | CN(C)c1cc2cc(n1)CCCn1cc(c3ccccc31)C1=C(C(=O)NC1=O)c1cn(c3ccccc13)CCC2
104 |  | 92 | 85 | 130 | 104 | 91 | 107 | 99 | 110 | 106 | 88 |  | 116 | 110 | 102 | 7 | 100 | O=C1NC(=O)C2=C1c1cn(c3ccccc13)CCCc1ccc(c(N3CCCC3)n1)CCCn1cc2c2ccccc21
99 | 108 | 82 | 77 | 121 | 108 | 104 | 96 | 112 | 114 | 112 | 92 | 99 | 99 | 104 | 102 | 3 | 107 | O=C1NC(=O)C2=C1c1cn(c3ccccc13)CCCc1cc(nc(N3CCCC3)c1)CCCn1cc2c2ccccc21
